From PMC8254048, “An interdomain hydrogen bond in the Rag GTPases maintains stable mTORC1 signaling in sensing amino acids” (The Journal of Biological Chemistry, 2021)

Tests used:
[1] = target: T1, RagA–RagC GTPase heterodimer (Rag GTPases) (Homo sapiens, UniProt Q7L523+Q9HB90, Q7L523:T210A); test: half-site GTP hydrolysis after nucleotide preloading; type: biochemical; settings: 1.2 molar equivalents prebound, labelled GTP added; pH 7.4, 2 mM MgCl2, 25 °C; stimulates hydrolysis on second subunit
T1 construct: gene RRAGA; RagA-RagC heterodimer coexpressed in E. coli BL21(DE3); nucleotide stripped with EDTA, gel filtration
T1 sequence (Q7L523 whole entry T210A): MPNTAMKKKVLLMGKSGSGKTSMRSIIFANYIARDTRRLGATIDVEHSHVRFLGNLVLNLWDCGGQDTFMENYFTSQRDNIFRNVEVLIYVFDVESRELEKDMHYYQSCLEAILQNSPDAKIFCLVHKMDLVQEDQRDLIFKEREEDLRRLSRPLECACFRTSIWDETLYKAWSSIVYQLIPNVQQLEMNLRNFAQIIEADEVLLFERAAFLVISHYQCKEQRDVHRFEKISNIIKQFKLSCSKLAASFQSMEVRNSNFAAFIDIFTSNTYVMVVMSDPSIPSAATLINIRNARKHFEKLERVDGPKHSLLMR
T1 sequence (Q9HB90 whole entry): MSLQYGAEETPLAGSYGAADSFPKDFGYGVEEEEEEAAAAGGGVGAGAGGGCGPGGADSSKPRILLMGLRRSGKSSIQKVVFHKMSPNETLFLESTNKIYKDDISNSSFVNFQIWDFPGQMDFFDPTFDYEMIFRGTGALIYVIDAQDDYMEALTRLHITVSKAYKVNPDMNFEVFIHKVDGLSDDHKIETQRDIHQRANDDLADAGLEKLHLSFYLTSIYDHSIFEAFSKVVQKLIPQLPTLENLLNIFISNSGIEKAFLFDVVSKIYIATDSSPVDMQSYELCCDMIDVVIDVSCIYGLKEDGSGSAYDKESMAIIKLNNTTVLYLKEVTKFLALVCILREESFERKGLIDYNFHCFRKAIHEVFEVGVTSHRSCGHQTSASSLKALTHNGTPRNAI

[2] = target: T2, RagA–RagC GTPase heterodimer (Rag GTPases) (Homo sapiens, UniProt Q7L523+Q9HB90, Q9HB90:S266A); test: as above; type: biochemical; settings: 1.2 molar equivalents prebound, labelled GTP added; pH 7.4, 2 mM MgCl2, 25 °C; stimulates hydrolysis on second subunit
T2 construct: gene RRAGA; RagA-RagC heterodimer coexpressed in E. coli BL21(DE3); nucleotide stripped with EDTA, gel filtration
T2 sequence (Q7L523 whole entry): as the sequence (Q7L523 whole entry T210A) above, with A210T counted along it
T2 sequence (Q9HB90 whole entry S266A): as the sequence (Q9HB90 whole entry) above, with S266A counted along it

Nc1nc2c(ncn2[C@@H]2O[C@H](COP(=O)(O)OP(=O)(O)NP(=O)(O)O)[C@@H](O)[C@H]2O)c(=O)[nH]1 [GppNHp]
half-site GTP hydrolysis after nucleotide preloading [1]: prebound GTP or GppNHp stimulated hydrolysis of the later-bound GTP to a much higher level
half-site GTP hydrolysis after nucleotide preloading [2]: prebound GTP or GppNHp stimulated hydrolysis of the later-bound GTP to a much higher level
